Source: US11071730B2, “Substituted 6-azabenzimidazole compounds” (Gilead Sciences, Inc., priority 2018, dated 2021)

target: human HPK1 (MAP4K1) (Homo sapiens (Human), UniProt Q92918); test: HPK1 IC50 Assay (TR-FRET biochemical kinase assay, STK S1 peptide substrate); details: recombinant human HPK1 kinase domain 0.15 nM, 10 μM ATP, 1 μM STK S1 peptide; geometric mean
Protocol: The enzymatic activity of human HPK1 (MAP4K1) was monitored in a biochemical assay in the presence or absence of compounds and using a synthetic peptide substrate. An increase in phosphorylation of the peptide by HPK1 was indicative of its kinase activity.
Recombinant HPK1 kinase domain produced via baculovirus infection of insect cells was obtained from Proteros (Proteros Biostructures #PR-0322) and was pre-activated in the presence of 2 mM ATP (Sigma-Aldrich, cat #GE27-2056-01) and 2 mM magnesium chloride for 16 hours at 4° C. The protein reaction mixture was then loaded to a desalting column (Thermo Fisher Scientific, Cat #89889) to remove excess ATP. HPK1 was eluted with buffer containing 20 mM Tris (2-Amino-2-(hydroxymethyl)propane-1,3-diol) pH 8.0, 150 mM NaCl, 2 mM dithiothreitol and 5% glycerol, and was frozen at −80° C. for later use.
Ten nanoliters of test compounds dissolved in DMSO at various concentrations were dispensed into a 384-well ProxiPlate (PerkinElmer #6008289). Five microliters of a solution of recombinant HPK1 diluted in HPK1 kinase assay buffer (50 mM BES [N,N-Bis(2-hydroxyethyl)-2-aminoethanesulfonic acid], pH 7.0; 10 mM magnesium chloride; 0.01% Triton X-100; 1 mM dithiothreitol; 0.01% bovine serum albumin; 0.1 mM sodium orthovanadate) was added to the compound-containing plate and was incubated for 15 minutes at 25° C. Five microliters of a mixture of ATP (Sigma-Aldrich #A6559) and peptide substrate STK S1 (Cisbio #61ST1BLC) diluted in HPK1 kinase assay buffer was then added to start the reaction. Final concentrations were 0.15 nM for HPK1, 10 μM for ATP, and 1 μM for the STK S1 peptide substrate. The reaction mixture was incubated at 25° C. for 3 hours and was stopped with the addition of 10 μl of an EDTA (Ethylenediaminetetraacetic acid)-containing detection buffer (Cisbio #62SDBRDF) supplemented with Europium cryptate-labeled anti-phospho-serine/threonine antibodies (Cisbio #62ST1PEJ) and XL665-labeled streptavidin (Cisbio #610SAXLG). The mixture was incubated for 16 hours at room temperature and peptide phosphorylation was measured by time-resolved fluorescence energy transfer (665 nm/620 nm) on an Envision plate reader (PerkinElmer).
Data in Table 1 were normalized based on positive (staurosporine) and negative (DMSO) controls. Least squares curve fittings were performed using a four-parameter variable slope nonlinear regression model. IC50 is defined as the concentration of compound required to inhibit 50% of maximum phosphorylation. IC50 values from multiple experiments were averaged by geometric mean and the standard deviation was calculated.

human HPK1 (MAP4K1), sequence (Q92918 17-274): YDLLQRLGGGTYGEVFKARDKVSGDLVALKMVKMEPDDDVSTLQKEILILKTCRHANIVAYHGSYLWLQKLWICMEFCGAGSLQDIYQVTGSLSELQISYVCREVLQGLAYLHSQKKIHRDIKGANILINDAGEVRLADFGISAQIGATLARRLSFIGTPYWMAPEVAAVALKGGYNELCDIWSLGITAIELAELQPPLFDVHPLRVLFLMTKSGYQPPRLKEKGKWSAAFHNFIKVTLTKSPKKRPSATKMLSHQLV

IC50 [nM]	Structure (SMILES)
0.5	CO[C@@H](C)C(=O)N1CCC2(CC1)C(=O)N([C@H]1C[C@@H](N3CCCCC3)C1)c1cc(-c3cc4ncn(C(C)C)c4c(Nc4ccncc4F)n3)ccc12 [Example 152]
0.3	COC1(C(=O)N2CCC3(CC2)C(=O)N([C@H]2C[C@@H](N4CCCCC4)C2)c2cc(-c4cc5ncn(C(C)C)c5c(Nc5ccncc5F)n4)ccc23)CC1 [Example 146]
0.5	CO[C@H]1C[C@@H](C(=O)N2CCC3(CC2)C(=O)N([C@H]2C[C@@H](N4CCCCC4)C2)c2cc(-c4cc5ncn(C(C)C)c5c(Nc5ccncc5F)n4)ccc23)C1 [Example 136, 6-(4-((3-fluoropyridin-4-yl)amino)-3-isopropyl-3H-imidazo[4,5-c]pyridin-6-yl)-1′-((1s,3 S)-3-methoxycyclobutane-1-carbonyl)-1-((1s,3 S)-3-(piperidin-1-yl)cyclobutyl)spiro[indoline-3,4′-piperidin]-2-one]
0.1	CC(=O)N1CCC2(CC1)C(=O)N([C@H]1C[C@@H](N3CCCCCC3)C1)c1cc(-c3cc4ncn(C(C)C)c4c(Nc4ccncc4F)n3)ccc12 [Example 185]
0.3	CC(C)n1cnc2cc(-c3ccc4c(c3)N([C@H]3C[C@@H](N5CCCCC5)C3)C(=O)C43CCN(C(=O)[C@@H]4CCC[C@@H]4O)CC3)nc(Nc3ccncc3F)c21 [Example 109]
9.6	CNC(=O)c1cc(Nc2nc(-c3ccc4c(c3)N([C@H]3C[C@@H](N5CCCCC5)C3)C(=O)C4(C)C)cc3ncn(C(C)C)c23)ncc1C [Example 194, 2-((6-(3,3-dimethyl-2-oxo-1-((1s,3s)-3-(piperidin-1-yl)cyclobutyl)indolin-6-yl)-3-isopropyl-3H-imidazo[4,5-c]pyridin-4-yl)amino)-N,5-dimethylisonicotinamide]
0.2	CC(C)n1cnc2cc(-c3ccc4c(c3)N([C@H]3C[C@@H](N5CCCC6(CC6)C5)C3)C(=O)C43CCN(C(=O)CO)CC3)nc(Nc3ccncc3F)c21 [Example 121]
0.3	CC(C)n1cnc2cc(-c3ccc4c(c3)N([C@H]3C[C@@H](N5CCCCC5)C3)C(=O)C43CCN(C(=O)C(C)(C)C#N)CC3)nc(Nc3ccncc3F)c21 [Example 141]
0.3	CC(=O)N1CCC2(CC1)C(=O)N([C@H]1C[C@@H](N3CCCC4(CCC4)C3)C1)c1cc(-c3cc4ncn(C(C)C)c4c(Nc4ccncc4F)n3)ccc12 [Example 182]
0.4	CC[C@H](O)C(=O)N1CCC2(CC1)C(=O)N([C@H]1C[C@@H](N3CCCCC3)C1)c1cc(-c3cc4ncn(C(C)C)c4c(Nc4ccncc4F)n3)ccc12 [Example 115]
0.5	CC(C)n1cnc2cc(-c3ccc4c(c3)N([C@H]3C[C@@H](N5CCCCC5)C3)C(=O)C43CCN(C(=O)C4(F)CCC4)CC3)nc(Nc3ccncc3F)c21 [Example 149]
0.4	CC(C)n1cnc2cc(-c3ccc4c(c3)N([C@H]3C[C@@H](N5CCC(C)(C)C5)C3)C(=O)C43CCN(C(=O)c4cnco4)CC3)nc(Nc3ccncc3F)c21 [Example 158]
0.1	CC(C)n1cnc2cc(-c3ccc4c(c3)N([C@H]3C[C@@H](N5CCC(C)(C)C5)C3)C(=O)C43CCN(C(=O)c4nccs4)CC3)nc(Nc3ccncc3F)c21 [Example 162]
0.2	CC(C)n1cnc2cc(-c3ccc4c(c3)N([C@H]3C[C@@H](N5CCCC6(CC6)C5)C3)C(=O)C43CCN(C(=O)C(C)(C)CO)CC3)nc(Nc3ccncc3F)c21 [Example 122]

Structure (SMILES)	IC50 [nM]
CCn1cnc2cc(-c3ccc4c(c3)N([C@H]3C[C@@H](N5CCCCC5)C3)C(=O)C43CCN(C4COC4)CC3)nc(Nc3ccncc3F)c21 [Example 175]	0.8

same assay, conditions: recombinant human HPK1 kinase domain 0.15 nM, 10 μM ATP, 1 μM STK S1 peptide; geometric mean of multiple experiments

IC50 [nM]	Structure (SMILES)
6.6	CC(=O)N1CCC2(CC1)C(=O)N([C@H]1C[C@@H](N3CCCCC3)C1)c1cc(-c3cc4ncn(C(C)C)c4c(Nc4cc(C(=O)NC(C)C)ncc4F)n3)ccc12 [Example 74]
0.2	CC(C)n1cnc2cc(-c3ccc4c(c3)N([C@H]3C[C@@H](N5CCCCC5)C3)C(=O)C43CCN(C(=O)C4(C)COC4)CC3)nc(Nc3ccc(F)nc3F)c21 [Example 96]
0.5	CC(C)n1cnc2cc(-c3ccc4c(c3)N([C@H]3C[C@@H](N5CCC6(CC6)C5)C3)C(=O)C43CCN(C(=O)C4(C)COC4)CC3)nc(Nc3ccncc3F)c21 [Example 5]
1.1	CC(=O)N1CCC2(CC1)C(=O)N([C@H]1C[C@@H](N3CCCCC3)C1)c1cc(-c3cc4ncn(C(C)C)c4c(Nc4cc(C)ncc4F)n3)ccc12 [Example 31]
0.2	CC(=O)N1CCC2(CC1)C(=O)N([C@H]1C[C@@H](N3CC4CCC(C3)O4)C1)c1cc(-c3cc4ncn(C(C)C)c4c(Nc4ccncc4F)n3)ccc12 [Example 34]
2.5	CC(C)n1cnc2cc(-c3cnc4c(c3)N([C@H]3C[C@@H](N5CCCCC5)C3)C(=O)C4(C)C)nc(Nc3ccnc(F)c3F)c21 [Example 95]
0.5	CC(C)n1cnc2cc(-c3ccc4c(c3)N([C@H]3C[C@@H](N5CCC(C)(C)C5)C3)C(=O)C43CCN(C(=O)C4COC4)CC3)nc(Nc3ccncc3F)c21 [Example 76]
0.4	CC(C)n1cnc2cc(-c3ccc4c(c3)N([C@H]3C[C@@H](N5CCC(C)(C)C5)C3)C(=O)C43CCN(C(=O)C(C)(C)O)CC3)nc(Nc3ccncc3F)c21 [Example 4]
0.2	CC(C)n1cnc2cc(-c3ccc4c(c3)N([C@H]3C[C@@H](N5C[C@@H](C)[C@@H](C)C5)C3)C(=O)C43CCN(C(=O)[C@@H]4CCCO4)CC3)nc(Nc3ccncc3F)c21 [Example 9]
0.3	CC(=O)N1CCC2(CC1)C(=O)N([C@H]1C[C@@H](N3C[C@@H](C)[C@@H](C)C3)C1)c1cc(-c3cc4ncn(C(C)C)c4c(Nc4ccncc4F)n3)ccc12 [Example 33]
0.1	CC(C)n1cnc2cc(-c3ccc4c(c3)N([C@H]3C[C@@H](N5CCCC(C)(C)C5)C3)C(=O)C4(C)C)nc(Nc3ccc(=O)[nH]c3)c21 [Example 82]
0.4	CC(C)n1cnc2cc(-c3ccc4c(c3)N([C@H]3C[C@@H](N5CCC(C)(C)C5)C3)C(=O)C43CCN(C(=O)C4(C)COC4)CC3)nc(Nc3ccncc3F)c21 [Example 77]

Structure (SMILES)	IC50 [nM]
CC(C)n1cnc2cc(-c3ccc4c(c3)N([C@H]3C[C@@H](N5CC(C)(C)C[C@H]5CO)C3)C(=O)C43CCN(C4COC4)CC3)nc(Nc3ccncc3F)c21 [Example 38]	1.4
CC(C)n1cnc2cc(-c3ccc4c(c3)N([C@H]3C[C@@H](N5C6CCC5COC6)C3)C(=O)C43CCN(C4COC4)CC3)nc(Nc3ccncc3F)c21 [Example 50]	0.5
CC(C)n1cnc2cc(-c3ccc4c(c3)N([C@H]3C[C@@H](N5CCC[C@@H](F)C5)C3)C(=O)C43CCN(C4COC4)CC3)nc(Nc3ccncc3F)c21 [Example 79]	0.4
CC(C)n1cnc2cc(-c3ccc4c(c3)N([C@H]3C[C@@H](N5CCC(C)(C)C5)C3)C(=O)C43CCN(C4COC4)CC3)nc(Nc3ccnc(F)c3F)c21 [Example 93]	0.2
CC(C)n1cnc2cc(-c3ccc4c(c3)N([C@H]3C[C@@H](N5CC[C@@H](F)C5)C3)C(=O)C43CCN(C4COC4)CC3)nc(Nc3ccncc3F)c21 [Example 42]	0.6
CC(C)n1cnc2cc(-c3ccc4c(c3)N([C@H]3C[C@@H](N5CCCC(C)(F)C5)C3)C(=O)C43CCN(C4COC4)CC3)nc(Nc3ccncc3F)c21 (stereo partly drawn) [Example 80]	0.4
CC(C)n1cnc2cc(-c3ccc4c(c3)N([C@H]3C[C@@H](N5CC(O)C(C)(C)C5)C3)C(=O)C43CCN(C4COC4)CC3)nc(Nc3ccncc3F)c21 (stereo partly drawn) [Example 37, 6-(4-((3-fluoropyridin-4-yl)amino)-3-isopropyl-3H-imidazo[4,5-c]pyridin-6-yl)-1-((1s,3s)-3-(4-hydroxy-3,3-dimethylpyrrolidin-1-yl)cyclobutyl)-1′-(oxetan-3-yl)spiro[indoline-3,4′-piperidin]-2-one]	0.2
CC(C)n1cnc2cc(-c3ccc4c(c3)N([C@H]3C[C@@H](N5CCCCC5)C3)C(=O)C43CCN(C4COC4)CC3)nc(Nc3ccnc(F)c3F)c21 [Example 91, 6-(4-((2,3-difluoropyridin-4-yl)amino)-3-isopropyl-3H-imidazo[4,5-c]pyridin-6-yl)-1′-(oxetan-3-yl)-1-((1s,3s)-3-(piperidin-1-yl)cyclobutyl)spiro[indoline-3,4′-piperidin]-2-one]	0.2
CC(C)n1cnc2cc(-c3ccc4c(c3)N([C@H]3C[C@@H](N5CC(F)C6(CC6)C5)C3)C(=O)C43CCN(C4COC4)CC3)nc(Nc3ccncc3F)c21 (stereo partly drawn) [Example 49]	0.5
